Assays:
Rattus norvegicus [1] = assay: Distribution of radioactivity was determined in heart at 3h after intravenous administration of [125I]-labeled 2-oleoglycerol 1,3-Bis-[omega-(3-amino-2,4,6-triiodophenyl)alkanoates] in rats; format: ADME, organism-based; details: in vivo
Rattus norvegicus [2] = assay: Distribution of radioactivity was determined in lung at 30 min after intravenous administration of [125I]-labeled 2-oleoglycerol 1,3-Bis-[omega-(3-amino-2,4,6-triiodophenyl)alkanoates] in rats; format: ADME, organism-based; details: in vivo, 0.5 h
Rattus norvegicus [3] = assay: Distribution of radioactivity was determined in heart at 24 after intravenous administration of [125I]-labeled 2-oleoglycerol 1,3-Bis-[omega-(3-amino-2,4,6-triiodophenyl)alkanoates] in rats; format: ADME, organism-based; details: in vivo
Rattus norvegicus [4] = assay: Analysis of lipid-soluble radioactivity in liver 0.5 hour after iv administration of [125I]-labeled 2-Oleoyl 1,3-disubstituted Triacylglycerols and represented as % CHCl3/CH3OH from rat; format: ADME, organism-based; details: in vivo
Rattus norvegicus [5] = assay: Distribution of radioactivity was determined in liver at 30 min after intravenous administration of 1,3-Disubstituted Triacylglycerols in rats; format: ADME, organism-based; details: in vivo, 0.5 h
Rattus norvegicus [6] = assay: Analysis of lipid-soluble radioactivity in plasma 0.5 hour after iv administration of [125I]-labeled 2-Oleoyl 1,3-disubstituted Triacylglycerols and represented as % CHCl3/CH3OH from rat; format: ADME, organism-based; details: in vivo
Rattus norvegicus [7] = assay: Distribution of radioactivity was determined in spleen at 30 min after intravenous administration of [125I]-labeled 2-oleoglycerol 1,3-Bis-[omega-(3-amino-2,4,6-triiodophenyl)alkanoates] in rats; format: ADME, organism-based; details: in vivo, 0.5 h
Rattus norvegicus [8] = assay: Distribution of radioactivity was determined in liver at 30 min after intravenous administration of [125I]-labeled 2-oleoglycerol 1,3-Bis-[omega-(3-amino-2,4,6-triiodophenyl)alkanoates] in rats; format: ADME, organism-based; details: in vivo, 0.5 h
Rattus norvegicus [9] = assay: Distribution of radioactivity was determined in plasma at 30 min after intravenous administration of [125I]-labeled 2-oleoglycerol 1,3-Bis-[omega-(3-amino-2,4,6-triiodophenyl)alkanoates] in rats; format: ADME, organism-based; details: in vivo, 0.5 h
Rattus norvegicus [10] = assay: Distribution of radioactivity was determined in spleen at 30 min after intravenous administration of 1,3-Disubstituted Triacylglycerols in rats; format: ADME, organism-based; details: in vivo, 0.5 h
Rattus norvegicus [11] = assay: Analysis of lipid-soluble radioactivity in plasma 0.5 hour after iv administration of [125I]-labeled 2-Oleoyl 1,3-disubstituted Triacylglycerols expressed as %parent compound (by TLC with authentic [125I]-labeled standard) from rat; format: ADME, organism-based; details: in vivo
Rattus norvegicus [12] = assay: Distribution of radioactivity was determined in kidney at 24 hr after intravenous administration of [125I]-labeled 2-oleoglycerol 1,3-Bis-[omega-(3-amino-2,4,6-triiodophenyl)alkanoates] in rats; format: ADME, organism-based; details: in vivo
Rattus norvegicus [13] = assay: Polyacrylamide Gel Electrophoresis (PAGE) to determined the concentration of below albumin(BA) in rats after iv administration of [125I]-labeled 2-Oleolyl 1,3-disubstituted triglycerols was reported; format: ADME, organism-based; details: in vivo
Rattus norvegicus [14] = assay: Analysis of lipid-soluble radioactivity in liver 24 hour after iv administration of [125I]-labeled 2-Oleoyl 1,3-disubstituted Triacylglycerols and represented as % CHCl3/CH3OH from rat; format: ADME, organism-based; details: in vivo
Rattus norvegicus [15] = assay: Distribution of radioactivity was determined in plasma at 3h after intravenous administration of [125I]-labeled 2-oleoglycerol 1,3-Bis-[omega-(3-amino-2,4,6-triiodophenyl)alkanoates] in rats; format: ADME, organism-based; details: in vivo
Rattus norvegicus [16] = assay: Distribution of radioactivity was determined in blood at 3h after intravenous administration of [125I]-labeled 2-oleoglycerol 1,3-Bis-[omega-(3-amino-2,4,6-triiodophenyl)alkanoates] in rats; format: ADME, organism-based; details: in vivo
Rattus norvegicus [17] = assay: Distribution of radioactivity was determined in blood at 3h after intravenous administration of 1,3-Disubstituted Triacylglycerols in rats; format: ADME, organism-based; details: in vivo
Rattus norvegicus [18] = assay: Distribution of radioactivity was determined in lung at 24 hr after intravenous administration of [125I]-labeled 2-oleoglycerol 1,3-Bis-[omega-(3-amino-2,4,6-triiodophenyl)alkanoates] in rats; format: ADME, organism-based; details: in vivo
Rattus norvegicus [19] = assay: Polyacrylamide Gel Electrophoresis (PAGE) to determined the concentration of high density lipoprotein (HDL) in rats after iv administration of [125I]-labeled 2-Oleolyl 1,3-disubstituted triglycerols was reported; format: ADME, organism-based; details: in vivo
Rattus norvegicus [20] = assay: Distribution of radioactivity was determined in liver at 24 hr after intravenous administration of 1,3-Disubstituted Triacylglycerols in rats; format: ADME, organism-based; details: in vivo
Rattus norvegicus [21] = assay: Distribution of radioactivity was determined in thyroid at 30 min after intravenous administration of [125I]-labeled 2-oleoglycerol 1,3-Bis-[omega-(3-amino-2,4,6-triiodophenyl)alkanoates] in rats; format: ADME, organism-based, Thyroid gland; details: in vivo, 0.5 h
Rattus norvegicus [22] = assay: Distribution of radioactivity was determined in blood at 24 hr after intravenous administration of 1,3-Disubstituted Triacylglycerols in rats; format: ADME, organism-based; details: in vivo
Rattus norvegicus [23] = assay: Distribution of radioactivity was determined in liver at 24 hr after intravenous administration of [125I]-labeled 2-oleoglycerol 1,3-Bis-[omega-(3-amino-2,4,6-triiodophenyl)alkanoates] in rats; format: ADME, organism-based; details: in vivo
Rattus norvegicus [24] = assay: Distribution of radioactivity was determined in spleen at 24 hr after intravenous administration of 1,3-Disubstituted Triacylglycerols in rats; format: ADME, organism-based; details: in vivo
Rattus norvegicus [25] = assay: Polyacrylamide Gel Electrophoresis (PAGE) to determined the concentration of albumin(ALB) in rats after iv administration of [125I]-labeled 2-Oleolyl 1,3-disubstituted triglycerols was reported; format: ADME, organism-based; details: in vivo
Rattus norvegicus [26] = assay: Distribution of radioactivity was determined in blood at 48 hr after intravenous administration of 1,3-Disubstituted Triacylglycerols in rats; format: ADME, organism-based; details: in vivo
Rattus norvegicus [27] = assay: Distribution of radioactivity was determined in blood at 30 min after intravenous administration of 1,3-Disubstituted Triacylglycerols in rats; format: ADME, organism-based; details: in vivo, 0.5 h
Rattus norvegicus [28] = assay: Distribution of radioactivity was determined in lung at 3h after intravenous administration of [125I]-labeled 2-oleoglycerol 1,3-Bis-[omega-(3-amino-2,4,6-triiodophenyl)alkanoates] in rats; format: ADME, organism-based; details: in vivo
Rattus norvegicus [29] = assay: Polyacrylamide Gel Electrophoresis (PAGE) to determined the concentration of stacking gel(SG) in rats after iv administration of [125I]-labeled 2-Oleolyl 1,3-disubstituted triglycerols was reported; format: ADME, organism-based; details: in vivo
Rattus norvegicus [30] = assay: Distribution of radioactivity was determined in kidney at 3h after intravenous administration of [125I]-labeled 2-oleoglycerol 1,3-Bis-[omega-(3-amino-2,4,6-triiodophenyl)alkanoates] in rats; format: ADME, organism-based; details: in vivo
Rattus norvegicus [31] = assay: Distribution of radioactivity was determined in liver at 3h after intravenous administration of [125I]-labeled 2-oleoglycerol 1,3-Bis-[omega-(3-amino-2,4,6-triiodophenyl)alkanoates] in rats; format: ADME, organism-based; details: in vivo
Rattus norvegicus [32] = assay: Distribution of radioactivity was determined in spleen at 24 hr after intravenous administration of [125I]-labeled 2-oleoglycerol 1,3-Bis-[omega-(3-amino-2,4,6-triiodophenyl)alkanoates] in rats; format: ADME, organism-based; details: in vivo
Rattus norvegicus [33] = assay: Distribution of radioactivity was determined in thyroid at 24 hr after intravenous administration of [125I]-labeled 2-oleoglycerol 1,3-Bis-[omega-(3-amino-2,4,6-triiodophenyl)alkanoates] in rats; format: ADME, organism-based, Thyroid gland; details: in vivo
Rattus norvegicus [34] = assay: Analysis of lipid-soluble radioactivity in plasma 24 hour after iv administration of [125I]-labeled 2-Oleoyl 1,3-disubstituted Triacylglycerols and represented as % CHCl3/CH3OH from rat; format: ADME, organism-based; details: in vivo
Rattus norvegicus [35] = assay: Distribution of radioactivity was determined in liver at 48 hr after intravenous administration of 1,3-Disubstituted Triacylglycerols in rats; format: ADME, organism-based; details: in vivo

## CCCCCCCC/C=C/CCCCCCCC(=O)OC(COC(=O)CCCCCCc1c(I)cc(I)c(N)c1I)COC(=O)CCCCCCc1c(I)cc(I)c(N)c1I
Rattus norvegicus [1]
  Distribution of radioactivity: 0.22 % dose/g
Rattus norvegicus [2]
  Distribution of radioactivity: 0.66 % dose/g
Rattus norvegicus [3]
  Distribution of radioactivity: 0.1 % dose/g
Rattus norvegicus [4]
  Lipid-soluble radioactivity: 56
Rattus norvegicus [5]
  Radioactivity per organ: 67.7 % dose/organ
Rattus norvegicus [6]
  Lipid-soluble radioactivity: 36.1
Rattus norvegicus [7]
  Distribution of radioactivity: 21.8 % dose/g
Rattus norvegicus [8]
  Distribution of radioactivity: 7.23 % dose/g
Rattus norvegicus [9]
  Distribution of radioactivity: 0.83 % dose/g
Rattus norvegicus [10]
  Distribution of radioactivity: 10.5 % dose/organ
Rattus norvegicus [11]
  Lipid-soluble radioactivity: 0
Rattus norvegicus [12]
  Distribution of radioactivity: 0.22 % dose/g
Rattus norvegicus [13]
  Radioactivity: 5.1%
Rattus norvegicus [14]
  Lipid-soluble radioactivity: 30.2
Rattus norvegicus [15]
  Distribution of radioactivity: 0.29 % dose/g
Rattus norvegicus [16]
  Distribution of radioactivity: 0.28 % dose/g
Rattus norvegicus [17]
  Distribution of radioactivity: 2.7 % dose/organ
Rattus norvegicus [18]
  Distribution of radioactivity: 0.29 % dose/g
Rattus norvegicus [19]
  Radioactivity: 0.3%
Rattus norvegicus [20]
  Distribution of radioactivity: 9.6 % dose/organ
Rattus norvegicus [21]
  Distribution of radioactivity: 0.31 % dose/g
Rattus norvegicus [22]
  Distribution of radioactivity: 2.5 % dose/organ
Rattus norvegicus [23]
  Distribution of radioactivity: 1.1 % dose/g
Rattus norvegicus [24]
  Distribution of radioactivity: 0.8 % dose/organ
Rattus norvegicus [25]
  Radioactivity: 66.3%
Rattus norvegicus [26]
  Distribution of radioactivity: 0.4 % dose per organ
Rattus norvegicus [27]
  Distribution of radioactivity: 6.6 % dose/organ
Rattus norvegicus [28]
  Distribution of radioactivity: 0.34 % dose/g
Rattus norvegicus [29]
  Radioactivity: 28.1%
Rattus norvegicus [30]
  Distribution of radioactivity: 0.18 % dose/g
Rattus norvegicus [31]
  Distribution of radioactivity: 5.84 % dose/g
Rattus norvegicus [32]
  Distribution of radioactivity: 1.43 % dose/g
Rattus norvegicus [33]
  Distribution of radioactivity: 6.53 % dose/g
Rattus norvegicus [34]
  Lipid-soluble radioactivity: 15.3
Rattus norvegicus [35]
  Distribution of radioactivity: 4.4 % dose/organ

## CCCCCCCC/C=C/CCCCCCCC(=O)OC(COC(=O)CCCCCc1c(I)cc(I)c(N)c1I)COC(=O)CCCCCc1c(I)cc(I)c(N)c1I
Rattus norvegicus [1]
  Distribution of radioactivity: 0.2 % dose/g
Rattus norvegicus [2]
  Distribution of radioactivity: 0.26 % dose/g
Rattus norvegicus [3]
  Distribution of radioactivity: 0.07 % dose/g
Rattus norvegicus [4]
  Lipid-soluble radioactivity: 91.3
Rattus norvegicus [5]
  Radioactivity per organ: 66.8 % dose/organ
Rattus norvegicus [6]
  Lipid-soluble radioactivity: 89.9
Rattus norvegicus [7]
  Distribution of radioactivity: 24.4 % dose/g
Rattus norvegicus [8]
  Distribution of radioactivity: 7.01 % dose/g
Rattus norvegicus [9]
  Distribution of radioactivity: 0.65 % dose/g
Rattus norvegicus [10]
  Distribution of radioactivity: 13.9 % dose/organ
Rattus norvegicus [11]
  Lipid-soluble radioactivity: 82.2
Rattus norvegicus [12]
  Distribution of radioactivity: 0.25 % dose/g
Rattus norvegicus [13]
  Radioactivity: 0.6%
Rattus norvegicus [14]
  Lipid-soluble radioactivity: 90.3
Rattus norvegicus [15]
  Distribution of radioactivity: 0.24 % dose/g
Rattus norvegicus [16]
  Distribution of radioactivity: 0.2 % dose/g
Rattus norvegicus [17]
  Distribution of radioactivity: 2.2 % dose/organ
Rattus norvegicus [18]
  Distribution of radioactivity: 0.26 % dose/g
Rattus norvegicus [19]
  Radioactivity: 7%
Rattus norvegicus [20]
  Distribution of radioactivity: 34.9 % dose/organ
Rattus norvegicus [21]
  Distribution of radioactivity: 0.54 % dose/g
Rattus norvegicus [22]
  Distribution of radioactivity: 1.1 % dose/organ
Rattus norvegicus [23]
  Distribution of radioactivity: 4.2 % dose/g
Rattus norvegicus [24]
  Distribution of radioactivity: 5.8 % dose/organ
Rattus norvegicus [25]
  Radioactivity: 15%
Rattus norvegicus [26]
  Distribution of radioactivity: 0.8 % dose per organ
Rattus norvegicus [27]
  Distribution of radioactivity: 4.8 % dose/organ
Rattus norvegicus [28]
  Distribution of radioactivity: 0.21 % dose/g
Rattus norvegicus [29]
  Radioactivity: 72.6%
Rattus norvegicus [30]
  Distribution of radioactivity: 0.21 % dose/g
Rattus norvegicus [31]
  Distribution of radioactivity: 8.74 % dose/g
Rattus norvegicus [32]
  Distribution of radioactivity: 10.4 % dose/g
Rattus norvegicus [33]
  Distribution of radioactivity: 5.13 % dose/g
Rattus norvegicus [34]
  Lipid-soluble radioactivity: 80.6
Rattus norvegicus [35]
  Distribution of radioactivity: 22.4 % dose/organ
